Source: patent publication EP3290412A1, “HIV-1 NUCLEOCAPSID INHIBITORS” (Università degli Studi di Siena, priority 2016, dated 2018)
Read-outs that look alike come from different tables or passages of the source.

Experiments:
[1] = test system: Peripheral blood mononuclear cells (PBMC); format: cell-based; settings: human, 7 days
Procedure: Peripheral blood mononuclear cells (PBMC) obtained from healthy donors by separation over Ficoll-Hypaque (GEHealthear-Cat.# GEH17-1440-02) were suspended at 2x10^6 cells/mL in RPMI 1640 (Biowest-Cat.#L0501-500) supplemented with 10% of heat-inactivated sterile fetal bovine serum (Gibco-Cat.#10270-106), 2 mmol/l L-glutamine (Biowest-Cat.#X0550-100), 50 U/mL Penicillin-50 µg/mL Streptomycin (Biowest-Cat.#L0022-100), referred to as complete medium (CM). PBMC were supplemented with 5 µg/mL of phytohaemagglutinin (Sigma Aldr-Cat.#L1668) and cultured in 75 cm^2 flasks (Sarsted-Cat.#833.911.002) for 2 days at 37 °C in a humidified atmosphere with 5% CO2.
PBMC were then washed in CM, counted by trypan blue exclusion (Gibco-Cat. #15250-061), centrifuged and suspended in fresh CM supplemented with 20 IU/mL recombinant human IL-2 (Miltenyi Biotec-Cat.#130-097-748) and seeded in a 96-well-tissue culture plate (Sarsted-Ca#831.837) at the density of 5x10^5 cells/mL (or 1x10^5 cells in 200 µL final CM volume per well). Cells were left untreated (negative control) or treated with different concentrations of the compounds.
After 7 days of incubation cytotoxicity was determined using Promega's CellTiter 96(R) AQueous One Solution Cell Proliferation Assay (MTS assay) (Promega-Cat.#G3581) according to the manufacturer's instuctions. This is a colorimetric method for determining the number of viable cells in proliferation or cytotoxicity assays. The MTS tetrazolium compound is bioreduced by cells into a colored formazan product that is soluble in tissue culture medium. This conversion is presumably accomplished by NADPH or NADH produced by dehydrogenase enzymes in metabolically active cells.
Briefly, MTS solution was thawed at room temperature, or in a water bath at 37 °C and 40 µL of MTS solution was pipeted into each well of the 96-well assay plate containing the samples in 200 µL of culture medium and incubated at 37 °C, 5% CO2 for 4 hours. The optical density was read at 490 nm using a 96-well plate reader (Tecan Infinite F50) and TD50 (toxic dose 50%, dose killing 50% of the cells compared to untreated control) value was calculated by interpolation of the curve obtained by plotting dose against percent mortality and by using "Magellan data analysis software". CM alone plus MTS solution was used as a blank, and cell culture well without compound was used as a cellular control.

HeLa cells = assay: HeLa Proliferation assay (CellTiter Glo); format: cell-based; settings: 72 hours
Procedure: HeLa cells (ATCC® CCL2™) in DMEM (Dulbecco Modified Eagle's Medium) without phenol red, Thermo, 11880, USA + 10% FBS + 1X PenStrep + 1X Gln or HUVEC cells (ATCC® CRL1730™) in EBM-2 (Endothelial Growth Basal Medium, Lonza, CC3156) + EGM-2 SingleQuotsTMSupplements and Growth Factors (Lonza, CC4176) + 1X Penicyllin-Streptomycin (PenStrep, ThermoFisher) + 1X Glutamine, are plated in a 384 well plate (Thermo, 4334-11, USA) to a density of 2000 cells per well and let recover for four hours at 37 °C, 5% CO2 in a humidified atmosphere. After the recovery, compounds are transferred to assay plates as per compound preparation method. Assay plates are then incubated at 37 °C, 5% CO2 in a humidified atmosphere for 72 hours. Cell viability is measured by the CellTiter Glo (Promega, G8080, USA) as per manufacturer instruction.

[2] = test system: HIV-1 reference strain NL4-3; assay: BiCycle assay (MT-2 then TZM-bl cells); format: cell-based
Procedure, shortened: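 MT-2 cells were infected with NL4-3 in the presence of five-fold compound dilutions. After 72 h, the supernatant was passed to TZM-bl cells. Two days later, luciferase luminescence was read and IC50 calculated, giving a readout that spans the whole replication cycle.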

[3] = molecular target: T1, full length (1-55) HIV-1 NCp7 (Human immunodeficiency virus type 1 group M subtype B, UniProt P12493); assay: Electromobility Shift Assay (EMSA), competition for ssDNA binding; settings: NCp7 300 nM, M13mp18 ssDNA; positive = >25% inhibition at 100µM
T1 construct: recombinant full length (1-55) HIV-1 NCp7 proteins; made in house
Procedure, shortened: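 Recombinant NL4-3 NCp7 (300 nM in the pre-mix) was combined with compound in 20 mM Tris-HCl pH 7.4, 2 mM MgCl2, 100 mM NaCl, 1 mM DTT, then M13mp18 ssDNA was added for 25 min at 37 °C. Complexes were run on 1% agarose/0.5x TBE and stained with SybrGold. IC50 is the concentration at which bound ssDNA migrated 50% of the bound–unbound distance (triplicate).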

[4] = Human immunodeficiency virus 1, NL43, TZM-bl, read-out: BiCycle IC50 nM
[5] = Human immunodeficiency virus 1, NL43, MT-2 cells 72 hours then TZM-bl cells two days, NL4-3, read-out: BiCycle IC50

| SMILES | Proliferation assay PBMC TD50 [1] | Proliferation assay HELA TD50 (HeLa cells) | IC50 [2, 4] | EMSA screening results [3] | IC50 [2, 5] | TD50 [1] | EC50 ([2]; Human immunodeficiency virus 1, NL43, TZM-bl, read-out: Mean EC50 (nM)) |
| --- | --- | --- | --- | --- | --- | --- | --- |
| C[C@@H](NC(=O)c1nc(-c2ccc(C(=O)OCc3ccccc3)cn2)nc(O)c1O)C1CCCCC1 [Compound 21, benzyl (R)-6-(4-((1-cyclohexylethyl)carbamoyl)-5,6-dihydroxypyrimidin-2-yl)nicotinate] | <400 nM | 3.9607 µM | 118 nM | Positive (A compound showing >25% inhibition when tested at 100µM concentration is considered as "positive") |  |  |  |
| CCNS(=O)(=O)c1ccc(-c2nc(O)c(O)c(C(=O)N[C@H](C)C3CCCCC3)n2)nc1 [Compound 89, (R)-N-(1-cyclohexylethyl)-2-(5-(N-ethylsulfamoyl)pyridin-2-yl)-5,6-dihydroxypyrimidine-4-carboxamide] | 3290 nM | 12.629 µM | 10400 nM | Negative |  |  |  |
| O=C(NCC1CCCCC1)c1nc(-c2ncccc2Cl)nc(O)c1O [Compound 16, 2-(3-chloropyridin-2-yl)-N-(cyclohexylmethyl)-5,6-dihydroxypyrimidine-4-carboxamide] | 5700 nM | 16.609 µM |  | Positive (A compound showing >25% inhibition when tested at 100µM concentration is considered as "positive") | 2050 nM |  |  |
| O=C(NC1CCCCC1)c1nc(-c2ccccn2)nc(O)c1O [Compound 4, N-cyclohexyl-5,6-dihydroxy-2-(pyridin-2-yl)pyrimidine-4-carboxamide] | 4800 nM | 8.1353 µM | 461 nM | Negative |  |  |  |
| C[C@H](NC(=O)c1nc(-c2nccc3ccccc23)nc(O)c1O)C1CCCCC1 [Compound 80, (S)-N-(1-cyclohexylethyl)-5,6-dihydroxy-2-(isoquinolin-1-yl)pyrimidine-4-carboxamide] | 2000 nM | 1.6112 µM | 144 nM | Positive (A compound showing >25% inhibition when tested at 100µM concentration is considered as "positive") |  |  |  |
| C[C@@H](NC(=O)c1nc(-c2cc(OCc3ccccc3)ccn2)nc(O)c1O)C1CCCCC1 [Compound 35, (R)-2-(4-(benzyloxy)pyridin-2-yl)-N-(1-cyclohexylethyl)-5,6-dihydroxypyrimidine-4-carboxamide] | 670 nM | 4.5896 µM |  | Positive (A compound showing >25% inhibition when tested at 100µM concentration is considered as "positive") | 530 nM |  |  |
| C[C@@H](NC(=O)c1nc(-c2ccc(CNCc3ccccc3)cn2)nc(O)c1O)C1CCCCC1 [Compound 53, (R)-2-(5-((benzylamino)methyl)pyridin-2-yl)-N-(1-cyclohexylethyl)-5,6-dihydroxypyrimidine-4-carboxamide] | 790 nM | 2.8763 µM | 530 nM | Negative |  |  |  |
| Cc1ccc(-c2nc(O)c(O)c(C(=O)N[C@H](C)C3CCCCC3)n2)nc1 [Compound 41, (R)-N-(1-cyclohexylethyl)-5,6-dihydroxy-2-(5-methylpyridin-2-yl)pyrimidine-4-carboxamide] | 2800 nM | 2.013 µM |  | Positive (A compound showing >25% inhibition when tested at 100µM concentration is considered as "positive") | 298 nM |  |  |
| COc1ccc2nc(-c3nc(O)c(O)c(C(=O)N[C@H](C)C4CCCCC4)n3)ccc2c1 [Compound 66, (R)-N-(1-cyclohexylethyl)-5,6-dihydroxy-2-(6-methoxyquinolin-2-yl)pyrimidine-4-carboxamide] | 6600 nM | 3.66 µM | 1970 nM | Positive (A compound showing >25% inhibition when tested at 100µM concentration is considered as "positive") |  |  |  |
| C[C@@H](NC(=O)c1nc(-c2ncccc2C(F)(F)F)nc(O)c1O)C1CCCCC1 [Compound 30, (R)-N-(1-cyclohexylethyl)-5,6-dihydroxy-2-(3-(trifluoromethyl)pyridin-2-yl)pyrimidine-4-carboxamide] | 5400 nM | >50 µM |  | Positive (A compound showing >25% inhibition when tested at 100µM concentration is considered as "positive") | 1730 nM |  |  |
| O=C(NCCCC1CCCCC1)c1nc(-c2ccccn2)nc(O)c1O [Compound 8, N-(3-cyclohexylpropyl)-5,6-dihydroxy-2-(pyridin-2-yl)pyrimidine-4-carboxamide] | 2000 nM | 4.8472 µM | 518 nM | Positive (A compound showing >25% inhibition when tested at 100µM concentration is considered as "positive") |  |  |  |
| COc1ccnc(-c2nc(O)c(O)c(C(=O)N[C@@H](C)C3CCCCC3)n2)c1 [Compound 69, N-[(1S)-1-cyclohexylethyl]-2-(4-methoxypyridin-2-yl)-5,6-bis(oxidanyl)pyrimidine-4-carboxamide] | 7110 nM | 3.8999 µM | 357 nM | Positive (A compound showing >25% inhibition when tested at 100µM concentration is considered as "positive") |  |  |  |
| C[C@H](NC(=O)c1nc(-c2ccc(N)cn2)nc(O)c1O)C1CCCCC1 [Compound 81, (S)-2-(5-aminopyridin-2-yl)-N-(1-cyclohexylethyl)-5,6-dihydroxypyrimidine-4-carboxamide] | 1400 nM | 0.5425 µM | 222 nM | Positive (A compound showing >25% inhibition when tested at 100µM concentration is considered as "positive") |  |  |  |
| COc1ccc(-c2nc(O)c(O)c(C(=O)N[C@H](C)C3CCCCC3)n2)nc1 [Compound 32, (R)-N-(1-cyclohexylethyl)-5,6-dihydroxy-2-(5-methoxypyridin-2-yl)pyrimidine-4-carboxamide] | 3000 nM | 0.9356 µM | 341 nM | Positive (A compound showing >25% inhibition when tested at 100µM concentration is considered as "positive") |  |  |  |
| COc1ccnc(-c2nc(O)c(O)c(C(=O)N[C@H](C)C3CCCCC3)n2)c1 [Compound 28, (R)-N-(1-cyclohexylethyl)-5,6-dihydroxy-2-(4-methoxypyridin-2-yl)pyrimidine-4-carboxamide] | 2700 nM | 2.8609 µM | 40.5 nM | Positive (A compound showing >25% inhibition when tested at 100µM concentration is considered as "positive") |  | 2700 nM | 41 nM |
